Reference: ChEMBL document CHEMBL5365409, “Novel series of tunable µOR modulators with enhanced brain penetration for the treatment of opioid use disorder, pain and neuropsychiatric indications” (Bioorg Med Chem Lett, 2023)
The source made the active and inactive calls. The calls are words filed in the database; no cut-off is given here.

Key:
[1] = Drug concentration in Sprague-Dawley rat brain at 30 mg/kg, po and measured after 1 hr; format: ADME, organism-based; details: read-out: Ct
Mu-type opioid receptor [2] = biological target: T1, Mu-type opioid receptor (Homo sapiens, UniProt P35372); assay: Agonist activity at human mu opioid receptor stably transfected in CHO cells by cAMP assay; format: functional, cell-based
T1 sequence (P35372 whole entry): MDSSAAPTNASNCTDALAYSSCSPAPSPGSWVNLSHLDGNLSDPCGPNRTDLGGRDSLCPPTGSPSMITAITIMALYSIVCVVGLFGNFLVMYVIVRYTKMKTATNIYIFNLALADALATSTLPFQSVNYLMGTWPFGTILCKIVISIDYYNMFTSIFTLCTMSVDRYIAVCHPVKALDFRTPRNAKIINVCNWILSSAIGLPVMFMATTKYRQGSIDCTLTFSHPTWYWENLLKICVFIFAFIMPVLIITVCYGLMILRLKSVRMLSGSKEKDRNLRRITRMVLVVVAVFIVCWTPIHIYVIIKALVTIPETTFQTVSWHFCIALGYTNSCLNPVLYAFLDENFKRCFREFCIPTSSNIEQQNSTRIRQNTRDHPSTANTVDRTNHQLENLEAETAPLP

Mu-type opioid receptor [3] = biological target: T1, Mu-type opioid receptor; assay: Agonist activity at human mu opioid receptor stably transfected in CHO cells assessed as maximal response by cAMP assay relative to DAMGO; format: functional, cell-based
[4] = Plasma concentration in Sprague-Dawley rat at 30 mg/kg, po and measured after 1 hr; format: ADME, organism-based
[5] = Ratio of drug concentration in brain to plasma of Sprague-Dawley rat at 30 mg/kg, po measured after 1 hr; format: ADME, organism-based
Rattus norvegicus [6] = assay: Analgesic activity in Sprague-Dawley rat assessed as increase in withdrawal latency at 0.3 to 10 mg/kg, sc by hot plate assay; format: functional, organism-based; details: dose 0.3-10 mg/kg, time <= 90.0 min
Rattus norvegicus [7] = assay: Analgesic activity in Sprague-Dawley rat assessed as increase in withdrawal latency at 10 mg/kg, sc by hot plate assay; format: functional, organism-based
Mu-type opioid receptor [8] = biological target: T1, Mu-type opioid receptor; assay: Antagonist activity at human mu opioid receptor stably transfected in CHO cells assessed as decrease in DAMGO induced receptor activation by cAMP assay; format: functional, cell-based
Rattus norvegicus [9] = assay: Antianalgesic activity in Sprague-Dawley rat assessed as decrease in (1R,2R)-N-((S)-2-(dimethylamino)-3-(4-hydroxy-2-methylphenyl)propyl)-2-methyl-2-phenylcyclopropane-1-carboxamide induced analgesic effect by measuring withdrawal latency at 10 to 20 mg/kg, sc by hot plate assay; format: functional, organism-based; details: dose 10-20 mg/kg
Mu-type opioid receptor [10] = biological target: T1, Mu-type opioid receptor; assay: Antagonist activity at human mu opioid receptor stably transfected in CHO cells assessed as maximal inhibition of DAMGO induced receptor activation by cAMP assay relative to naltrexone; format: functional, cell-based; details: filed as antagonist
Rattus norvegicus [11] = assay: Antianalgesic activity in Sprague-Dawley rat assessed as decrease in (1R,2R)-N-((S)-2-(dimethylamino)-3-(4-hydroxy-2-methylphenyl)propyl)-2-methyl-2-phenylcyclopropane-1-carboxamide induced analgesic effect by measuring withdrawal latency at 10 mg/kg, sc by hot plate assay; format: functional, organism-based
[12] = In vivo receptor occupancy at mu opioid receptor in Sprague-Dawley rat brain at 10 mg/kg, sc measured by LC/MS/MS analysis relative to control; format: functional

Row | Compound | concentration at 1 h [1] [ng/g] | EC50 (Mu-type opioid receptor [2]) [µM] | concentration at 1 h [4] [µg/mL] | BPR [5] [%] | further results
1 | C[C@H](NC(=O)NC[C@H](Cc1ccc(O)cc1)N(C)C)c1ccccc1 | 33 | 0.021 | 0.19 | 17 | Emax (Mu-type opioid receptor [3]; filed as agonist): 48%
2 | Cc1cc(O)ccc1C[C@@H](CNC(=O)[C@@H]1C[C@@]1(C)c1ccccc1)N(C)C |  | 0.00033 |  |  | Emax (Mu-type opioid receptor [3]; filed as agonist): 100%
3 | CN(C)[C@H](CNC(=O)[C@@H]1C[C@@]1(C)c1ccccc1)Cc1ccc(O)cc1 | 3.3 | 0.00087 | 0.0037 | 89 | Emax (Mu-type opioid receptor [3]; filed as agonist): 90%; Activity (Rattus norvegicus [6]): Dose-Dependent Effect
4 | CN(C)[C@H](CNC(=O)[C@@H]1C[C@]1(C)c1ccccc1)Cc1ccc(O)cc1 |  | > 3 |  |  | Activity (Rattus norvegicus [7]): inactive; IC50 (Mu-type opioid receptor [8]): 0.11 µM; Activity (Rattus norvegicus [9]): Active; Imax (Mu-type opioid receptor [10]): 100%
5 | CN(C)[C@@H](CNC(=O)N[C@H](c1ccccc1)C1CC1)Cc1ccc(O)cc1 |  | 0.346 |  |  | 
6 | C[C@H](CC(=O)NC[C@H](Cc1ccc(O)cc1)N(C)C)c1ccccc1 | 29.2 |  | 0.0233 | 125 | Emax (Mu-type opioid receptor [3]; filed as agonist): 68%
7 | CN(C)[C@H](CNC(=O)[C@@H]1C[C@]1(C)c1ccccc1)Cc1ccc(O)cc1Cl |  | > 3 |  |  | IC50 (Mu-type opioid receptor [8]): 0.029 µM; Activity (Rattus norvegicus [11]): Active; Activity [12]: 70%; Imax (Mu-type opioid receptor [10]): 100%
8 | CN(C)[C@H](CNC(=O)N[C@H](c1ccccc1)C1CC1)Cc1ccc(O)cc1 |  | 0.0073 |  |  | 
9 | C[C@@H](CC(=O)NC[C@H](Cc1ccc(O)cc1)N(C)C)c1ccccc1 | 14.4 |  | 0.0169 | 85 | Emax (Mu-type opioid receptor [3]; filed as agonist): 68%
10 | C[C@H](OC(=O)NC[C@H](Cc1ccc(O)cc1)N(C)C)c1ccccc1 | 481 | 0.18 | 0.149 | 323 | 
11 | C[C@H](OC(=O)NC[C@@H](Cc1ccc(O)cc1)N(C)C)c1ccccc1 |  | > 3 |  |  | 
12 | CN(C)[C@H](CNC(=O)[C@H]1C[C@@]1(C)c1ccccc1)Cc1ccc(O)cc1 |  | > 3 |  |  | IC50 (Mu-type opioid receptor [8]): > 3 µM
13 | CN(C)[C@@H](CNC(=O)N[C@@H](c1ccccc1)C1CC1)Cc1ccc(O)cc1 |  | 0.243 |  |  | 
14 | CN(C)[C@H](CNC(=O)N[C@@H](c1ccccc1)C1CC1)Cc1ccc(O)cc1 |  | 0.104 |  |  | 
15 | C[C@@H](OC(=O)NC[C@@H](Cc1ccc(O)cc1)N(C)C)c1ccccc1 |  | 0.95 |  |  | 
16 | CN(C)[C@H](CNC(=O)O[C@H](c1ccccc1)C1CC1)Cc1ccc(O)cc1 |  | 0.77 |  |  | Emax (Mu-type opioid receptor [3]): 26%
17 | C[C@@H](OC(=O)NC[C@H](Cc1ccc(O)cc1)N(C)C)c1ccccc1 |  | 0.062 |  |  | 
18 | Cc1cc(O)cc(C)c1C[C@@H](CNC(=O)[C@@H]1C[C@@]1(C)c1ccccc1)N(C)C |  | 0.002 |  |  | Activity (Rattus norvegicus [7]): inactive; Emax (Mu-type opioid receptor [3]): 27%; Activity (Rattus norvegicus [9]): Active
19 | CN(C)[C@H](CNC(=O)[C@H]1C[C@]1(C)c1ccccc1)Cc1ccc(O)cc1 |  | > 3 |  |  | IC50 (Mu-type opioid receptor [8]): 0.21 µM; Imax (Mu-type opioid receptor [10]): 100%
20 | C[C@@H](CC(=O)NC[C@H](Cc1c(F)cc(O)cc1F)N(C)C)c1ccccc1 | 3.9 |  | 0.0054 | 72 | Emax (Mu-type opioid receptor [3]): 33%
